# Reference: ChEMBL document CHEMBL4715706, “Discovery of Benzotriazolo[4,3-d][1,4]diazepines as Orally Active Inhibitors of BET Bromodomains” (ACS Med Chem Lett, 2016)
# Test system: not listed separately
# Experiment: Inhibition of BET in human THP-1 cells assessed as suppression of LPS-induced IL-6 release measured after 16 hrs by chemiluminescence ELISA
# Format: cell-based
# Conditions: THP-1, 16 h
row,Compound,EC50
1,Cc1nnc2n1-c1ccc(-c3ccc(N)nc3)cc1N(c1ccc(Cl)cc1)C[C@@H]2C,790 nM
2,Cc1nnc2n1-c1ccccc1N(c1ccc(Cl)cc1)CC2C (stereo not given),290 nM
3,Cc1nnc2n1-c1ccc(-c3cnn(C)c3)cc1N(c1ccc(Cl)cc1)CC2,130 nM
4,Cc1noc2c1-c1ccc(-c3ccc(N)nc3)cc1N(c1ccc(C#N)cc1)CC2C (stereo not given),78 nM
5,Cc1noc2c1-c1ccc(-c3ccc(=O)n(C)c3)cc1N(c1ccc(C#N)cc1)CC2C (stereo not given),94 nM

# More lines, now with the values ahead:
row,EC50,Compound
1,450 nM,Cc1ncnn1-c1ccc2c(c1)N(c1ccc(Cl)cc1)C[C@@H](C)c1nnc(C)n1-2
2,100 nM,Cc1ccc(-c2ccc3c(c2)N(c2ccc(Cl)cc2)C[C@@H](C)c2nnc(C)n2-3)cn1
3,41 nM,Cc1nnc2n1-c1ccc(-n3cncn3)cc1N(c1ccc(Cl)cc1)C[C@H]2C
4,1800 nM,CCNC(=O)CC1CN(c2ccc(Cl)cc2)c2ccccc2-n2c(C)nnc21 (stereo not given)
5,36 nM,Cc1nnc2n1-c1ccc(-c3ccc(=O)n(C)c3)cc1N(c1ccc(Cl)cc1)C[C@H]2C

# Test system: not listed separately
# Experiment: Intrinsic clearance in mouse liver microsomes
# Conditions: not given
row,Compound,microsomal CLint
1,CCNC(=O)CC1CN(c2ccc(Cl)cc2)c2ccccc2-n2c(C)nnc21 (stereo not given),52 µL/min/mg
2,Cc1nnc2n1-c1ccccc1N(c1ccc(Cl)cc1)CC2C (stereo not given),110 µL/min/mg
3,Cc1nnc2n1-c1ccc(-c3cnn(C)c3)cc1N(c1ccc(Cl)cc1)CC2,77 µL/min/mg
4,Cc1noc2c1-c1ccc(-c3ccc(N)nc3)cc1N(c1ccc(C#N)cc1)CC2C (stereo not given),44 µL/min/mg
5,Cc1noc2c1-c1ccc(-c3ccc(=O)n(C)c3)cc1N(c1ccc(C#N)cc1)CC2C (stereo not given),64 µL/min/mg

# Test system: not listed separately
# Experiment: Intrinsic clearance in rat liver microsomes
# Conditions: not given
row,Compound,microsomal CLint
1,CCNC(=O)CC1CN(c2ccc(Cl)cc2)c2ccccc2-n2c(C)nnc21 (stereo not given),74 µL/min/mg
2,Cc1nnc2n1-c1ccccc1N(c1ccc(Cl)cc1)CC2C (stereo not given),25 µL/min/mg
3,Cc1nnc2n1-c1ccc(-c3cnn(C)c3)cc1N(c1ccc(Cl)cc1)CC2,154 µL/min/mg
4,Cc1noc2c1-c1ccc(-c3ccc(N)nc3)cc1N(c1ccc(C#N)cc1)CC2C (stereo not given),210 µL/min/mg
5,Cc1noc2c1-c1ccc(-c3ccc(=O)n(C)c3)cc1N(c1ccc(C#N)cc1)CC2C (stereo not given),71 µL/min/mg

# Test system: not listed separately
# Experiment: Intrinsic clearance in dog liver microsomes
# Conditions: not given
row,Compound,microsomal CLint
1,CCNC(=O)CC1CN(c2ccc(Cl)cc2)c2ccccc2-n2c(C)nnc21 (stereo not given),33 µL/min/mg
2,Cc1nnc2n1-c1ccccc1N(c1ccc(Cl)cc1)CC2C (stereo not given),83 µL/min/mg
3,Cc1nnc2n1-c1ccc(-c3cnn(C)c3)cc1N(c1ccc(Cl)cc1)CC2,91 µL/min/mg
4,Cc1noc2c1-c1ccc(-c3ccc(N)nc3)cc1N(c1ccc(C#N)cc1)CC2C (stereo not given),240 µL/min/mg
5,Cc1noc2c1-c1ccc(-c3ccc(=O)n(C)c3)cc1N(c1ccc(C#N)cc1)CC2C (stereo not given),65 µL/min/mg

# Test system: not listed separately
# Experiment: Intrinsic clearance in human liver microsomes
# Conditions: not given
row,Compound,microsomal CLint
1,CCNC(=O)CC1CN(c2ccc(Cl)cc2)c2ccccc2-n2c(C)nnc21 (stereo not given),44 µL/min/mg
2,Cc1nnc2n1-c1ccccc1N(c1ccc(Cl)cc1)CC2C (stereo not given),24 µL/min/mg
3,Cc1nnc2n1-c1ccc(-c3cnn(C)c3)cc1N(c1ccc(Cl)cc1)CC2,14 µL/min/mg
4,Cc1noc2c1-c1ccc(-c3ccc(N)nc3)cc1N(c1ccc(C#N)cc1)CC2C (stereo not given),62 µL/min/mg
5,Cc1noc2c1-c1ccc(-c3ccc(=O)n(C)c3)cc1N(c1ccc(C#N)cc1)CC2C (stereo not given),52 µL/min/mg

# Test system: not listed separately
# Experiment: Protein binding in mouse plasma
# Conditions: not given
row,Compound,fraction unbound
1,CCNC(=O)CC1CN(c2ccc(Cl)cc2)c2ccccc2-n2c(C)nnc21 (stereo not given),0.08
2,Cc1nnc2n1-c1ccccc1N(c1ccc(Cl)cc1)CC2C (stereo not given),0.04
3,Cc1nnc2n1-c1ccc(-c3cnn(C)c3)cc1N(c1ccc(Cl)cc1)CC2,0.03
4,Cc1noc2c1-c1ccc(-c3ccc(N)nc3)cc1N(c1ccc(C#N)cc1)CC2C (stereo not given),0.01
5,Cc1noc2c1-c1ccc(-c3ccc(=O)n(C)c3)cc1N(c1ccc(C#N)cc1)CC2C (stereo not given),0.01

# Test system: not listed separately
# Experiment: Protein binding in rat plasma
# Format: ADME, cell-free
# Conditions: read-out: PPB (converted)
row,Compound,fraction unbound
1,CCNC(=O)CC1CN(c2ccc(Cl)cc2)c2ccccc2-n2c(C)nnc21 (stereo not given),0.13
2,Cc1nnc2n1-c1ccccc1N(c1ccc(Cl)cc1)CC2C (stereo not given),0.04
3,Cc1nnc2n1-c1ccc(-c3cnn(C)c3)cc1N(c1ccc(Cl)cc1)CC2,0.05
4,Cc1noc2c1-c1ccc(-c3ccc(N)nc3)cc1N(c1ccc(C#N)cc1)CC2C (stereo not given),0.02
5,Cc1noc2c1-c1ccc(-c3ccc(=O)n(C)c3)cc1N(c1ccc(C#N)cc1)CC2C (stereo not given),0.03

# Test system: not listed separately
# Experiment: Protein binding in dog plasma
# Conditions: not given
row,Compound,fraction unbound
1,CCNC(=O)CC1CN(c2ccc(Cl)cc2)c2ccccc2-n2c(C)nnc21 (stereo not given),0.09
2,Cc1nnc2n1-c1ccccc1N(c1ccc(Cl)cc1)CC2C (stereo not given),0.05
3,Cc1nnc2n1-c1ccc(-c3cnn(C)c3)cc1N(c1ccc(Cl)cc1)CC2,0.04
4,Cc1noc2c1-c1ccc(-c3ccc(N)nc3)cc1N(c1ccc(C#N)cc1)CC2C (stereo not given),< 0.01
5,Cc1noc2c1-c1ccc(-c3ccc(=O)n(C)c3)cc1N(c1ccc(C#N)cc1)CC2C (stereo not given),0.02

# Test system: not listed separately
# Experiment: Protein binding in human plasma
# Format: ADME, cell-free
# Conditions: read-out: PPB (converted)
row,Compound,fraction unbound
1,CCNC(=O)CC1CN(c2ccc(Cl)cc2)c2ccccc2-n2c(C)nnc21 (stereo not given),0.09
2,Cc1nnc2n1-c1ccccc1N(c1ccc(Cl)cc1)CC2C (stereo not given),0.03
3,Cc1nnc2n1-c1ccc(-c3cnn(C)c3)cc1N(c1ccc(Cl)cc1)CC2,0.04
4,Cc1noc2c1-c1ccc(-c3ccc(N)nc3)cc1N(c1ccc(C#N)cc1)CC2C (stereo not given),< 0.01
5,Cc1noc2c1-c1ccc(-c3ccc(=O)n(C)c3)cc1N(c1ccc(C#N)cc1)CC2C (stereo not given),0.02

# Biological target: Bromodomain-containing protein 4 (Homo sapiens, UniProt O60885)
# Conditions: not given
row,Compound,IC50
1,Cc1nnc2n1-c1ccc(-c3ccc(N)nc3)cc1N(c1ccc(Cl)cc1)C[C@@H]2C,790 nM
2,Cc1nnc2n1-c1ccccc1N(c1ccc(Cl)cc1)CC2C (stereo not given),350 nM
3,Cc1nnc2n1-c1ccc(-c3cnn(C)c3)cc1N(c1ccc(Cl)cc1)CC2,44 nM
4,Cc1noc2c1-c1ccc(-c3ccc(N)nc3)cc1N(c1ccc(C#N)cc1)CC2C (stereo not given),36 nM
5,Cc1noc2c1-c1ccc(-c3ccc(=O)n(C)c3)cc1N(c1ccc(C#N)cc1)CC2C (stereo not given),32 nM

# The remaining lines, values ahead:
row,IC50,Compound
1,280 nM,Cc1ncnn1-c1ccc2c(c1)N(c1ccc(Cl)cc1)C[C@@H](C)c1nnc(C)n1-2
2,46 nM,Cc1ccc(-c2ccc3c(c2)N(c2ccc(Cl)cc2)C[C@@H](C)c2nnc(C)n2-3)cn1
3,74 nM,Cc1nnc2n1-c1ccc(-n3cncn3)cc1N(c1ccc(Cl)cc1)C[C@H]2C
4,2100 nM,CCNC(=O)CC1CN(c2ccc(Cl)cc2)c2ccccc2-n2c(C)nnc21 (stereo not given)
5,25 nM,Cc1nnc2n1-c1ccc(-c3ccc(=O)n(C)c3)cc1N(c1ccc(Cl)cc1)C[C@H]2C
